# Source: PubChem BioAssay (NCI)
#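 At the GI50, growth is halved. Definition used: TGI = concentration required for complete inhibition of growth.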
# Columns and labels:
# Assay in all cases: NCI tumour cell line growth inhibition, 384-well format
# [1] = tested on: ACHN renal
# [2] = tested on: U251 glioblastoma
# [3] = tested on: T-47D breast
# [4] = tested on: OVCAR-8 ovarian
# [5] = tested on: SK-OV-3 ovarian
# [6] = tested on: SF-539 CNS
# [7] = tested on: NCI-H522 lung
# [8] = tested on: 786-0 renal
# [9] = tested on: HL-60(TB) leukemia
# [10] = tested on: UO-31 renal
# [11] = tested on: SF-295 CNS
# [12] = tested on: HT29 colon
# [13] = tested on: NCI-H322M lung
# [14] = tested on: OVCAR-5 ovarian
# [15] = tested on: SR leukemia
# [16] = tested on: MDA-MB-468 breast
# [17] = tested on: DU-145 prostate
# [18] = tested on: CAKI-1 renal
# [19] = tested on: NCI-H23 lung
# [20] = tested on: OVCAR-4 ovarian
# [21] = tested on: MCF7 breast
# [22] = tested on: MDA-MB-435 melanoma
# [23] = tested on: SN12C renal
# [24] = tested on: OVCAR-3 ovarian
# [25] = tested on: HOP-92 NSCLC
# [26] = tested on: MOLT-4 leukemia
# [27] = tested on: LOX IMVI melanoma
# [28] = tested on: SK-MEL-28 melanoma
# [29] = tested on: MALME-3M melanoma
# [30] = tested on: EKVX NSCLC
# [31] = tested on: SNB-75 CNS
# [32] = tested on: A549 NSCLC
# [33] = tested on: CCRF-CEM leukemia
# [34] = tested on: COLO 205 colon
# [35] = tested on: NCI-H226 lung
# [36] = tested on: M14 melanoma
# [37] = tested on: UACC-62 melanoma
# [38] = tested on: A498 renal
# [39] = tested on: NCI-H460 NSCLC
# [40] = tested on: PC-3 prostate
# [41] = tested on: SF-268 CNS
# [42] = tested on: HCT-15 colon
# [43] = tested on: K-562 leukemia
# [44] = tested on: IGROV1 ovarian
# [45] = tested on: HS 578T breast
# [46] = tested on: BT-549 breast
# [47] = tested on: RPMI-8226 leukemia
# [48] = tested on: HOP-62 NSCLC
# [49] = tested on: RXF 393 renal
# [50] = tested on: HCC-2998 colon
# [51] = tested on: KM12 colon
# [52] = tested on: NCI/ADR-RES ovarian
# [53] = tested on: TK-10 renal
# [54] = tested on: UACC-257 melanoma
# [55] = tested on: SNB-19 CNS
# [56] = tested on: MDA-MB-231 breast
# [57] = tested on: SW-620 colon
smiles,measurement,setting,value
CCNC(=O)c1noc(-c2cc(C(C)C)c(O)cc2O)c1-c1ccc(CN2CCOCC2)cc1,GI50,[1],< 10 nM
same,TGI,[1],15.5 µM
same,GI50,[2],< 10 nM
same,TGI,[2],29.7 nM
same,GI50,[3],< 10 nM
same,TGI,[3],44.8 nM
same,GI50,[4],< 10 nM
same,TGI,[4],< 10 nM
same,GI50,[5],< 10 nM
same,TGI,[5],11 µM
same,GI50,[6],< 10 nM
same,TGI,[6],< 10 nM
same,GI50,[7],< 10 nM
same,TGI,[7],23.6 nM
same,GI50,[8],< 10 nM
same,TGI,[8],30.4 nM
same,GI50,[9],< 10 nM
same,TGI,[9],< 10 nM
same,GI50,[10],49.4 nM
same,TGI,[10],> 100 µM
same,GI50,[11],24.7 nM
same,TGI,[11],115 nM
same,GI50,[12],85.9 nM
same,TGI,[12],10.4 µM
same,GI50,[13],< 10 nM
same,TGI,[13],12.2 µM
same,GI50,[14],16.9 nM
same,TGI,[14],76.1 nM
same,GI50,[15],< 10 nM
same,TGI,[15],< 10 nM
same,GI50,[16],< 10 nM
same,TGI,[16],< 10 nM
same,GI50,[17],< 10 nM
same,TGI,[17],< 10 nM
same,GI50,[18],< 10 nM
same,TGI,[18],12.6 µM
same,GI50,[19],< 10 nM
same,TGI,[19],< 10 nM
same,GI50,[20],< 10 nM
same,TGI,[20],< 10 nM
same,GI50,[21],< 10 nM
same,TGI,[21],11.2 nM
same,GI50,[22],< 10 nM
same,TGI,[22],14.9 µM
same,GI50,[23],< 10 nM
same,TGI,[23],28 nM
same,GI50,[24],< 10 nM
same,TGI,[24],< 10 nM
same,GI50,[25],< 10 nM
same,TGI,[25],< 10 nM
same,GI50,[26],< 10 nM
same,TGI,[26],< 10 nM
same,GI50,[27],< 10 nM
same,TGI,[27],< 10 nM
same,GI50,[28],< 10 nM
same,TGI,[28],42.8 nM
same,GI50,[29],< 10 nM
same,TGI,[29],< 10 nM
same,GI50,[30],< 10 nM
same,TGI,[30],1030 nM
same,GI50,[31],< 10 nM
same,TGI,[31],< 10 nM
same,GI50,[32],< 10 nM
same,TGI,[32],10.7 µM
same,GI50,[33],< 10 nM
same,TGI,[33],< 10 nM
same,GI50,[34],20.7 nM
same,TGI,[34],157 nM
same,GI50,[35],< 10 nM
same,TGI,[35],11.7 µM
same,GI50,[36],< 10 nM
same,TGI,[36],11.2 µM
same,GI50,[37],< 10 nM
same,TGI,[37],< 10 nM
same,GI50,[38],< 10 nM
same,TGI,[38],3.88 µM
same,GI50,[39],< 10 nM
same,TGI,[39],< 10 nM
same,GI50,[40],< 10 nM
same,TGI,[40],29.6 nM
same,GI50,[41],< 10 nM
same,TGI,[41],10.7 µM
same,GI50,[42],< 10 nM
same,TGI,[42],10.4 µM
same,GI50,[43],< 10 nM
same,TGI,[43],< 10 nM
same,GI50,[44],12.1 nM
same,TGI,[44],37 nM
same,GI50,[45],< 10 nM
same,TGI,[45],< 10 nM
same,GI50,[46],< 10 nM
same,TGI,[46],< 10 nM
same,GI50,[47],< 10 nM
same,TGI,[47],< 10 nM
same,GI50,[48],< 10 nM
same,TGI,[48],13.1 nM
same,GI50,[49],< 10 nM
same,TGI,[49],< 10 nM
same,GI50,[50],< 10 nM
same,TGI,[50],< 10 nM
same,GI50,[51],< 10 nM
same,TGI,[51],13 nM
same,GI50,[52],66.9 nM
same,TGI,[52],269 nM
same,GI50,[53],24.4 nM
same,TGI,[53],81 nM
same,GI50,[54],< 10 nM
same,TGI,[54],420 nM
same,GI50,[55],13.1 nM
same,TGI,[55],63.7 nM
same,GI50,[56],< 10 nM
same,TGI,[56],< 10 nM
same,GI50,[57],< 10 nM
same,TGI,[57],< 10 nM
